Data reported in US9302999B2, “Substituted triazoles as herbicides” (E. I. DU PONT DE NEMOURS AND COMPANY, priority 2012, dated 2016).

Columns and labels:
Type in all cases: in vivo
[1] = tested on: barnyardgrass (Echinochloa crus-galli); assay: Test A pre-/postemergence: barnyardgrass; details: for Barnyardgrass plant response rating: Postemergence; for Plant response rating, Barnyardgrass: Preemergence
Summary of the method: (§1)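 Injury is scored visually on a scale where 0 means no effect and 100 complete control, comparing treated with untreated plants after approximately ten greenhouse days. Both preemergence and postemergence applications are made at the same time.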

[2] = tested on: crabgrass, large (large crabgrass, Digitaria sanguinalis); assay: Test A pre-/postemergence: crabgrass, large; details: for Crabgrass, Large plant response rating: Postemergence; for Plant response rating, Crabgrass, Large: Preemergence
Summary of the method: as §1

[3] = tested on: foxtail, giant (giant foxtail, Setaria faberii); assay: Test A pre-/postemergence: foxtail, giant; details: for Foxtail, Giant plant response rating: Postemergence; for Plant response rating, Foxtail, Giant: Preemergence
Summary of the method: as §1

[4] = tested on: morningglory (Ipomoea spp.); assay: Test A pre-/postemergence: morningglory; details: for Morningglory plant response rating: Postemergence; for Plant response rating, Morningglory: Preemergence
Summary of the method: as §1

[5] = tested on: pigweed (Amaranthus retroflexus); assay: Test A pre-/postemergence: pigweed; details: for Pigweed plant response rating: Postemergence; for Plant response rating, Pigweed: Preemergence
Summary of the method: as §1

[6] = tested on: velvetleaf (Abutilon theophrasti); assay: Test A pre-/postemergence: velvetleaf; details: for Velvetleaf plant response rating: Postemergence; for Plant response rating, Velvetleaf: Preemergence
Summary of the method: as §1

[7] = tested on: wheat (Triticum aestivum); assay: Test A pre-/postemergence: wheat; details: for Wheat plant response rating: Postemergence; for Plant response rating, Wheat: Preemergence
Summary of the method: as §1

corn (Zea mays) = assay: Test A pre-/postemergence: corn; details: for Corn plant response rating: Postemergence; for Plant response rating, Corn: Preemergence
Summary of the method: as §1

rice (Oryza sativa) = assay: Test C flooded paddy test: rice; details: scale 0 to 100 (0 no effect, 100 complete control)
Summary of the method: (§2)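 Rating: visual, 0–100 (100 = complete control), versus untreated controls after 13 to 15 greenhouse days. Treatment went into paddy water held at 3 cm over the soil, on plants grown to two leaves.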

[8] = tested on: sedge, umbrella (small-flower umbrella sedge, Cyperus difformis); assay: Test C flooded paddy test: sedge, umbrella; details: scale 0 to 100 (0 no effect, 100 complete control)
Summary of the method: as §2

[9] = tested on: ducksalad (Heteranthera limosa); assay: Test C flooded paddy test: ducksalad; details: scale 0 to 100 (0 no effect, 100 complete control)
Summary of the method: as §2

[10] = tested on: barnyardgrass (Echinochloa crus-galli); assay: Test C flooded paddy test: barnyardgrass; details: scale 0 to 100 (0 no effect, 100 complete control)
Summary of the method: as §2

[11] = 125 g ai/ha, 0 to 100 scale, 0 is no effect, 100 is complete control
[12] = 500 g ai/ha, visual rating on 0 to 100 scale (0 no effect, 100 complete control), approximately ten days
[13] = 125 g ai/ha, 0 to 100 scale (0 no effect, 100 complete control)
[14] = 500 g ai/ha, 0 to 100 scale, 0 is no effect, 100 is complete control
[15] = Flood (flooded paddy test), 62 g ai/ha, visual rating after 13 to 15 days
[16] = Flood (flooded paddy test), 125 g ai/ha, visual rating after 13 to 15 days
[17] = Flood (flooded paddy test), 250 g ai/ha, visual rating after 13 to 15 days

Cc1nn(-c2ccccn2)nc1C(=O)c1cccc(C(F)(F)F)c1 [Compound 60]
Barnyardgrass plant response rating [1, 11]: 0 | Barnyardgrass plant response rating [1, 12]: 10 | Plant response rating, Barnyardgrass [1, 13]: 0 | Plant response rating, Barnyardgrass [1, 14]: 0 | Crabgrass, Large plant response rating [2, 11]: 0 | Crabgrass, Large plant response rating [2, 12]: 10 | Plant response rating, Crabgrass, Large [2, 13]: 0 | Plant response rating, Crabgrass, Large [2, 14]: 0 | Foxtail, Giant plant response rating [3, 11]: 0 | Foxtail, Giant plant response rating [3, 12]: 0 | Plant response rating, Foxtail, Giant [3, 13]: 0 | Plant response rating, Foxtail, Giant [3, 14]: 0 | Morningglory plant response rating [4, 11]: 0 | Morningglory plant response rating [4, 12]: 0 | Plant response rating, Morningglory [4, 13]: 0 | Plant response rating, Morningglory [4, 14]: 0 | Pigweed plant response rating [5, 11]: 0 | Pigweed plant response rating [5, 12]: 10 | Plant response rating, Pigweed [5, 13]: 0 | Plant response rating, Pigweed [5, 14]: 0 | Velvetleaf plant response rating [6, 11]: 0 | Velvetleaf plant response rating [6, 12]: 0 | Plant response rating, Velvetleaf [6, 13]: 0 | Plant response rating, Velvetleaf [6, 14]: 0 | Wheat plant response rating [7, 11]: 0 | Wheat plant response rating [7, 12]: 0 | Plant response rating, Wheat [7, 13]: 0 | Plant response rating, Wheat [7, 14]: 0 | Corn plant response rating (corn (Zea mays); [11]): 0 | Corn plant response rating (corn (Zea mays); [12]): 10 | Plant response rating, Corn (corn (Zea mays); [13]): 0 | Plant response rating, Corn (corn (Zea mays); [14]): 0 | Plant response rating, Rice (rice (Oryza sativa); [15]): 0 | Plant response rating, Rice (rice (Oryza sativa); [16]): 0 | Plant response rating, Rice (rice (Oryza sativa); [17]): 0 | Plant response rating, Rice (rice (Oryza sativa); Flood, 31 g ai/ha): 0 | Plant response rating, Sedge, Umbrella [8, 15]: 0 | Plant response rating, Sedge, Umbrella [8, 16]: 0 | Plant response rating, Sedge, Umbrella [8, 17]: 0 | Plant response rating, Sedge, Umbrella ([8]; Flood, 31 g ai/ha): 0 | Plant response rating, Ducksalad [9, 15]: 0 | Plant response rating, Ducksalad [9, 16]: 0 | Plant response rating, Ducksalad [9, 17]: 0 | Plant response rating, Ducksalad ([9]; Flood, 31 g ai/ha): 0 | Plant response rating, Barnyardgrass [10, 15]: 0 | Plant response rating, Barnyardgrass [10, 16]: 0 | Plant response rating, Barnyardgrass [10, 17]: 0 | Plant response rating, Barnyardgrass ([10]; Flood, 31 g ai/ha): 0

Cc1nn(-c2cccc(C(F)(F)F)c2)nc1Oc1cc(C(F)(F)F)nn1C [Compound 64]
Barnyardgrass plant response rating [1, 11]: 0 | Barnyardgrass plant response rating [1, 12]: 0 | Plant response rating, Barnyardgrass [1, 13]: 0 | Plant response rating, Barnyardgrass [1, 14]: 0 | Crabgrass, Large plant response rating [2, 11]: 0 | Crabgrass, Large plant response rating [2, 12]: 0 | Plant response rating, Crabgrass, Large [2, 13]: 0 | Plant response rating, Crabgrass, Large [2, 14]: 0 | Foxtail, Giant plant response rating [3, 11]: 0 | Foxtail, Giant plant response rating [3, 12]: 0 | Plant response rating, Foxtail, Giant [3, 13]: 0 | Plant response rating, Foxtail, Giant [3, 14]: 0 | Morningglory plant response rating [4, 11]: 0 | Morningglory plant response rating [4, 12]: 0 | Plant response rating, Morningglory [4, 13]: 0 | Plant response rating, Morningglory [4, 14]: 0 | Pigweed plant response rating [5, 11]: 0 | Pigweed plant response rating [5, 12]: 0 | Plant response rating, Pigweed [5, 13]: 0 | Plant response rating, Pigweed [5, 14]: 0 | Velvetleaf plant response rating [6, 11]: 0 | Velvetleaf plant response rating [6, 12]: 0 | Plant response rating, Velvetleaf [6, 13]: 0 | Plant response rating, Velvetleaf [6, 14]: 0 | Wheat plant response rating [7, 11]: 0 | Wheat plant response rating [7, 12]: 0 | Plant response rating, Wheat [7, 13]: 0 | Plant response rating, Wheat [7, 14]: 0 | Corn plant response rating (corn (Zea mays); [11]): 0 | Corn plant response rating (corn (Zea mays); [12]): 0 | Plant response rating, Corn (corn (Zea mays); [13]): 0 | Plant response rating, Corn (corn (Zea mays); [14]): 0 | Plant response rating, Rice (rice (Oryza sativa); [15]): 0 | Plant response rating, Rice (rice (Oryza sativa); [16]): 0 | Plant response rating, Rice (rice (Oryza sativa); [17]): 0 | Plant response rating, Rice (rice (Oryza sativa); Flood, 31 g ai/ha): 0 | Plant response rating, Sedge, Umbrella [8, 15]: 0 | Plant response rating, Sedge, Umbrella [8, 16]: 0 | Plant response rating, Sedge, Umbrella [8, 17]: 0 | Plant response rating, Sedge, Umbrella ([8]; Flood, 31 g ai/ha): 0 | Plant response rating, Ducksalad [9, 15]: 0 | Plant response rating, Ducksalad [9, 16]: 0 | Plant response rating, Ducksalad [9, 17]: 0 | Plant response rating, Ducksalad ([9]; Flood, 31 g ai/ha): 0 | Plant response rating, Barnyardgrass [10, 15]: 0 | Plant response rating, Barnyardgrass [10, 16]: 0 | Plant response rating, Barnyardgrass [10, 17]: 0 | Plant response rating, Barnyardgrass ([10]; Flood, 31 g ai/ha): 0
